How the values were obtained:
[1] = tested on: KU812 (Chronic Myelogenous Leukemia); experiment: combination Emax (second highest fraction inhibited in the dose matrix, 72 h); higher = more inhibition; extreme values may be limits of the assay
How it was run: (§1)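 After 24 hours at 37°C and 5% CO2 in 1536-well plates, cells in DMEM/F12 or RPMI plus 10% FBS received two-drug dose matrices for 72 hours. Viability came from CellTiter-Glo 2.0 luminescence and was scaled as inhibition, anchored at 0 by vehicle wells and at 1 by blank wells. Combination Emax is taken as the second-highest inhibition in the matrix, and Bliss excess as the observed combination effect less EA + EB − EA·EB, with EA and EB the single-agent effects.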

[2] = tested on: KU812 (Chronic Myelogenous Leukemia); experiment: Bliss excess, mean over the matrix (fraction); higher = more synergy
How it was run: as §1

[3] = tested on: COR-L279 (Small Cell Lung Carcinoma); experiment: as above
How it was run: as §1

M059J (Glioblastoma) = experiment: as above
How it was run: as §1

[4] = tested on: NCI-H3122 (Lung Adenocarcinoma); experiment: as above
How it was run: as §1

[5] = tested on: SK-GT-4 (Esophageal Adenocarcinoma); experiment: as above
How it was run: as §1

[6] = tested on: ST486 (Burkitt's Lymphoma); experiment: as above
How it was run: as §1

[7] = tested on: NCI-H929 (Plasma Cell Myeloma); experiment: as above
How it was run: as §1

[8] = tested on: NCI-H526 (Small Cell Lung Carcinoma); experiment: as above
How it was run: as §1

[9] = tested on: DMS-114 (Small Cell Lung Carcinoma); experiment: as above
How it was run: as §1

[10] = tested on: T-T (Esophageal Squamous Cell Carcinoma); experiment: as above
How it was run: as §1

[11] = tested on: NCI-H520 (Squamous Cell Lung Carcinoma); experiment: as above
How it was run: as §1

NCI-H2731 (Mesothelioma) = experiment: as above
How it was run: as §1

[12] = tested on: VMRC-RCZ (Kidney Carcinoma); experiment: as above
How it was run: as §1

[13] = tested on: KP-3 (Pancreatic Carcinoma); experiment: as above
How it was run: as §1

[14] = tested on: KYSE-270 (Esophageal Squamous Cell Carcinoma); experiment: as above
How it was run: as §1

[15] = tested on: MOG-G-CCM (Low Grade Glioma); experiment: as above
How it was run: as §1

[16] = tested on: NCCIT (Other Solid Carcinomas); experiment: as above
How it was run: as §1

SJSA-1 (Osteosarcoma) = experiment: as above
How it was run: as §1

[17] = tested on: CW-2 (Colorectal Carcinoma); experiment: as above
How it was run: as §1
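For Bliss excess, mean over the matrix in this document: after 72 h of two-drug dosing.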

Row | SMILES | combination Emax [1] | Bliss excess [2] | Bliss excess [3] | Bliss excess (M059J (Glioblastoma)) | Bliss excess [4] | Bliss excess [5] | Bliss excess [6] | Bliss excess [7] | Bliss excess [8] | Bliss excess [9] | Bliss excess [10] | Bliss excess [11] | Bliss excess (NCI-H2731 (Mesothelioma)) | Bliss excess [12] | Bliss excess [13] | Bliss excess [14] | Bliss excess [15] | Bliss excess [16] | Bliss excess (SJSA-1 (Osteosarcoma)) | Bliss excess [17]
1 | C[C@@H](Nc1cc(F)cc(F)c1)c1cc(C(=O)N(C)C)cc2c(=O)cc(N3CCOCC3)oc12 [AZD8186] + CC(=O)c1c(C)c2cnc(Nc3ccc(N4CCNCC4)cn3)nc2n(C2CCCC2)c1=O [Palbociclib] (first compound max 10 µM, 7x7, partner max 10 µM) | 0.582 | 0.0412 | 0.147 | -0.006 | 0.0528 | -0.0649 | 0.0478 | -0.0272 | -0.0207 | 0.0178 | 0.0135 | 0.111 | -0.0036 | 0.12 | 0.0123 | -0.0036 | 0.0077 | 0.0183 | -0.0268 | 0.0464
2 | Cc1cc2ncnn2cc1Nc1ncc2c(n1)n(C1CCOCC1)c(=O)n2C [AZD7648] + COc1cc([C@@H]2c3cc4c(cc3[C@@H](O[C@@H]3O[C@@H]5CO[C@@H](C)O[C@H]5[C@H](O)[C@H]3O)[C@H]3COC(=O)[C@H]23)OCO4)cc(OC)c1O [Etoposide] (first compound max 10 µM, 7x7, partner max 10 µM) | 0.792 | 0.035 | 0.149 | 0.003 | 0.0903 | 0.0096 | 0.0989 | 0.033 | 0.121 | 0.0198 | 0.0254 | 0.0639 | 0.08 | 0.0743 | -0.0136 | 0.0627 | 0.106 | 0.0365 | 0.0316 | 0.0573
3 | CC1(C)CCC(CN2CCN(c3ccc(C(=O)NS(=O)(=O)c4ccc(NCC5CCOCC5)c([N+](=O)[O-])c4)c(Oc4cnc5[nH]ccc5c4)c3)CC2)=C(c2ccc(Cl)cc2)C1 [Venetoclax] + CS(=O)(=O)CCNCc1ccc(-c2ccc3ncnc(Nc4ccc(OCc5cccc(F)c5)c(Cl)c4)c3c2)o1 [Lapatinib] (first compound max 1 µM, 7x7, partner max 10 µM) | 0.831 | 0.0282 | -0.0185 | -0.0225 | -0.0229 | -0.0436 | 0.0224 | -0.0098 | 0.105 | -0.0443 | -0.0066 | -0.0169 | -0.0257 | -0.047 | -0.0487 | -0.0175 | -0.0568 | -0.024 | -0.002 | -0.0116
4 | Cc1nc(-c2cn3c(n2)-c2ccc(-c4cnn(C(C)(C)C(N)=O)c4)cc2OCC3)n(C(C)C)n1 [Taselisib] + O=C(Nc1ccc2[nH]nc(-c3ccncc3)c2c1)[C@@H]1CCN(CC(=O)N2CCN(c3ccc(-c4ncccn4)cc3)CC2)C1 [SCH772984] (first compound max 10 µM, 7x7, partner max 5 µM) | 1 | 0.0569 | 0.0833 | 0.0027 | 0.126 | 0.0428 | 0.0569 | 0.0344 | 0.0117 | 0.005 | 0.133 | 0.0461 | 0.0323 | 0.0004 | 0.0368 | 0.0577 | -0.0727 | -0.032 | 0.0019 | 0.0458
5 | N#Cc1cnc(Nc2cc(NC[C@H]3CNCCO3)c(C(F)(F)F)cn2)cn1 [SRA737] + C=CCn1c(=O)c2cnc(Nc3ccc(N4CCN(C)CC4)cc3)nc2n1-c1cccc(C(C)(C)O)n1 [AZD1775] (first compound max 10 µM, partner max 1 µM) | 0.796 | 0.0668 | 0.116 | 0.073 | 0.0718 | 0.003 | 0.0356 | 0.0295 | 0.0145 | -0.0231 | 0.0665 | 0.055 | 0.0007 | 0.0259 | 0.0086 | 0.136 | 0.0229 | 0.0855 | 0.0091 | 0.0162
6 | CN(CCO)CC[C@H](CSc1ccccc1)Nc1ccc(S(=O)(=O)NC(=O)c2ccc(N3CCC([C@@H](O)c4ccccc4-c4ccc(Cl)cc4)CC3)cc2)cc1S(=O)(=O)C(F)(F)F [AZD4320] + CC(=O)O[C@H]1C(=O)[C@@]2(C)[C@H]([C@H](OC(=O)c3ccccc3)[C@]3(O)C[C@H](OC(=O)[C@H](O)[C@@H](NC(=O)c4ccccc4)c4ccccc4)C(C)=C1C3(C)C)[C@]1(OC(C)=O)CO[C@@H]1C[C@@H]2O [Paclitaxel] (first compound max 1 µM, 7x7, partner max 3 µM) | 0.943 | -0.0252 | 0.0141 | 0.0756 | 0.0379 | 0.0543 | -0.0016 | -0.0687 | 0.0193 | 0.0486 | 0.0528 | 0.0142 | 0.0876 | 0.128 | 0.131 | 0.0171 | 0.0506 | 0.0317 | 0.0637 | -0.0328
7 | CN(CCO)CC[C@H](CSc1ccccc1)Nc1ccc(S(=O)(=O)NC(=O)c2ccc(N3CCC([C@@H](O)c4ccccc4-c4ccc(Cl)cc4)CC3)cc2)cc1S(=O)(=O)C(F)(F)F [AZD4320] + CS(=O)(=O)CCNCc1ccc(-c2ccc3ncnc(Nc4ccc(OCc5cccc(F)c5)c(Cl)c4)c3c2)o1 [Lapatinib] (first compound max 1 µM, 7x7, partner max 10 µM) | 0.973 | 0.0801 | 0.0862 | 0.0681 | 0.0006 | 0.0451 | 0.0668 | 0.0248 | 0.0898 | 0.0146 | -0.0055 | -0.0382 | -0.0076 | -0.0072 | -0.0588 | -0.0254 | -0.0278 | 0.0212 | -0.085 | -0.0322

From the supplement of paper PMC11061612
